The source of these data is patent US5482954A, “Signal transduction inhibitor triazole and diazole compounds” (priority 1994, dated 1996).

By viability is commonly meant a per cent measure of how many cells are alive, often set against a control.

In data set [1] the test system is signal transduction pathways (calcium influx, release of arachidonic acid, generation of inositol phosphates). The note with it: cited from earlier work.
Another data set relates to A2058 melanoma cells. Description: Reversibility of inhibition of tumor cell motility. As to conditions: for activity at 1 µg/mL / activity at 5 µg/mL: Homo sapiens, read-out: Motility (% of control). The format is cell-based, human. Here is the method:
The cell motility assay has been described. See, Stracke et al., Biochem. Biophys. Res. Comm., 146:339-345 (1987). Cells from the A2058 human melanoma line which was maintained in subconfluent culture were harvested with trypsin-EDTA, and were allowed to recover for 1 hr at room temperature. Cells from the 5R H-ras transformed (diploid) rat embryo fibroblast line were harvested with 2 mM EDTA in PBS without divalent cations. Cells were resuspended in serum-free media containing 0.1% BSA. This DMEM/0.1% BSA was used as the control for all subsequent assays. The assays were performed in triplicate using a 48-well chemotaxis chamber with 8μ Nucleopore, type IV collagen-coated filters. The chambers were incubated at 37° C. for 4 hr, stained and placed onto glass slides with the original cell side up so that the cell pellet could be wiped from the surface. Cells that had migrated through the pores were trapped between glass and membrane and could be quantitated by laser densitometry.
Reversibility of cell motility which had been inhibited by compound 1 was determined by removing the compound from the incubation media. Thus, A2058 melanoma cells were cultured for 24 hr in standard media (DMEM/10% FCS), washed twice with saline, and cultured with DMEM/10% FCS with (+) or without (-) compound 1 for 24 hr. Cells were then washed and the treatments were reversed. The resulting cells are classified as "treated" (±, run as a control to test cell response following the incubation and washing steps), "washout" (±, run to evaluate reversibility), and "control". Control cells were washed and fed with standard media alone at each change point. Table E provides the results expressed as a percent of control cell motility at two concentrations of compound 1.

The subject of another data set is OVCAR3 cells. Description: Type IV collagen-stimulated motility. The class given is cell-based, human. As to conditions: data not shown.
The subject of data set [2] is A2058 cells. Nature of the data set: Cell adhesion to tissue culture plastic. The format is cell-based, human. As to conditions: 0.03-10 μg/mL, 2 to 48 hr preincubation. The procedure:
An adhesion assay was developed using tissue culture plastic petri dishes as the substrate. Aliquots of cells treated similarly to those in the cell motility assay were plated in triplicate onto the dishes and incubated for 90 rain at 37° C. Cells which were either poorly adherent or nonadherent were gently washed off with PBS. The remaining cells were stained with Diff Quik™ (from Baxter Scientific Products, McGaw Park. Ill., USA). Adherence was quantitated using laser densitometry and values were calculated as a percentage of the control adherence.
Cells were preincubated with compound 1 (0.03-10 μg/mL) for periods of 2 to 48 hr prior to the adhesion assay. In addition, compound 1 remained present during the assay. […] Maximal inhibition of adhesion was observed following overnight exposure of the cells to compound 1.

Data set [3] can be described thus: Cell viability by trypan blue exclusion. The format is cell-based. The note with it: a2058 and 5r cells; average. Here is the method: Compound 1 was preincubated with the cells for various periods of time, added at the start of the assay, or added later. Additionally, compound 1 remained present during the motility assay. The cells were assayed for their motile response to AMF. AMF stimulates random and directed locomotion of 5R ras-transfected rat embryo fibroblasts and A2058 human melanoma cells. […] Cell viability determined by trypan blue exclusion averaged greater than 96%. Cells exposed to various concentrations of compound 1 were tested for their response to AMF vs. control. Percent stimulated motility (in densitometer units) is defined as: […]

The next data set relates to 5R cells. Nature of the data set: [3H]thymidine incorporation. The format is cell-based, rat. As to conditions: 0-10 μg/mL, 24 hr. The procedure: Proliferation: Two independent methods were used to determine the effect of various compounds on cellular proliferation. The first method utilized [^3 H]thymidine labelling and was performed using A2058, 5R, OVCAR3, and MDA-231 cells. Because the potential effect of compound 1 on thymidine metabolism was unknown, a clonogenic assay was also used. This assay utilized crystal violet nuclear staining.
For the thymidine incorporation assay, an initial aliquot of 15,000 cells was plated in 96 well plates. The cells were grown to subconfluence, serum-starved, then fed with serum-containing media to which incremental doses of compound 1 (0-10 μg/mL) were added. After 24 hr, the cells were pulsed with [^3 H]thymidine (0.5 μCi/well) for 2 hr. Trichloroacetic acid was added to precipitate […] [^3 H]thymidine. After removal, ice cold ethanol/diethyl ether was added to precipitate cellular nucleic acids. The residue was solubilized with 0.2M NaOH and [^3 H]thymidine incorporation was determined by liquid scintillation counting. Inhibition of thymidine uptake was calculated as a percent of untreated control cell incorporation of labelled thymidine. As FIG. 4 indicates, de novo DNA synthesis was inhibited in all of the tumor cell lines. Maximal inhibition (80%) was found with the 5R cells.

Data set [4] concerns A2058 cells. Nature of the data set: Type IV collagen-stimulated motility. The format is cell-based, human. The note with it: data not shown.
Data set [5] has as its system 5R ras-transfected rat embryo fibroblast cell line. Nature of the data set: Experimental pulmonary metastasis, tumor cells pretreated in vitro. The class given is in vivo, nude mice. As to conditions: cells treated overnight, 1-10 μM; 10 d. Here is the method:
This example illustrates the effect of selected compounds on the development of experimental pulmonary metastases, when the tumor cells are first incubated with the compound in vitro and subsequently injected into the tail vein of nude mice. In this example, both the 5R ras-transfected rat embryo fibroblast cell line and the HT-29 human colon cancer cell line were evaluated.
The 5R ras-transfected rat embryo fibroblast cell line forms confluent pulmonary metastases within 2-3 weeks after inoculation. For the experimental metastasis assay, 5R cells were treated in culture overnight with the test compounds (1-10 μM). After culture, the cells were harvested, washed and injected into the tail vein of six-week old nude mice. After 10 d, the mice were humanely sacrificed and the lungs were removed and fixed in Bouin's solution. The visible pulmonary metastases were counted.

The subject of the next data set is CHOm5 cells. Description: Carbachol-stimulated generation of inositol phosphates. The class given is cell-based, Chinese hamster. As to conditions: concentrations above 10 μM. The procedure: This example illustrates the effect of compound 1 on the generation and release of phosphatidyl inositol from either A2058 cells (stimulated with autocrine motility factor) or CHOm5 cells (stimulated with carbachol).
A second assay utilized CHO cells which were transfected with and stably expressed the m5 subtype of the muscarinic acetylcholine receptor.
CHOm5 cells were incubated with [^3 H]inositol (0.5 μCi/well) for 18 to 24 hr. Before the addition of test compounds, the cells were washed twice with 250 μL of serum-free media supplemented with 20 mM HEPES and 10 mM lithium chloride. The test compounds were added in a final volume of 250 μL and the reaction was allowed to proceed for 15 min at 37° C. The reaction was stopped by the addition of 250 μL of an ice-cold solution containing 1M KOH, 18 mM Na2 B4 O7, 3.8 mM EDTA and 7.6 mM NaOH. The stop solution was neutralized immediately with the addition of 250 μL of a solution containing 7.5% HCl. Released inositol phosphates were separated by anion exchange chromatography.

Data set [6] relates to SKBR human breast cancer cells. Description: AMF-stimulated cell motility. The class given is cell-based. The note with it: overnight exposure; data not shown.

Like-named read-outs stand apart in the source and are kept apart here.

For `NC(=O)c1nnn(Cc2cc(Cl)c(C(=O)c3ccc(Cl)cc3)c(Cl)c2)c1N` [Compound 1], the “inhibition of selected signal transduction pathways” value in data set [1] is “novel inhibitor of selected signal transduction pathways”. Also, the activity at 1 µg/mL in the data set on A2058 melanoma cells (A2058, 1 μg/mL (+/-)) was found to be 97%; with A2058 melanoma cells (A2058, 1 μg/mL (-/+)) it was 59%. For the same compound, the activity at 5 µg/mL with A2058 melanoma cells (A2058, 5 μg/mL (+/-)) was 94%; in the data set on A2058 melanoma cells (A2058, 5 μg/mL (-/+)), 27%. Besides, the “reversibility of motility inhibition” value with A2058 melanoma cells (removal of the compound from the culture medium) is “could be reversed by removal of the compound from the culture medium”. Besides, the “motility due to type IV collagen stimulation” value with OVCAR3 cells and in the data set on A2058 cells [4] was “inhibited motility” in each case. Moreover, the “inhibition of cell adhesion” value with A2058 cells [2] is “dose-dependent inhibition of cell adhesion”. The viability in [3] was more than 96%. In the data set on 5R cells, the “maximal inhibition of de novo DNA synthesis ([3H]thymidine incorporation)” value was found to be 80%. For the same compound, the “inhibition of pulmonary colonization” value in data set [5] is on record as 95%. The “inhibition of carbachol-stimulated generation of inositol phosphates” value in the data set on CHOm5 cells is recorded as “partially inhibited”. For the same compound, the “motile response to AMF” value in [6] is given as “inhibited”.
